This note sets out measurements from ChEMBL document CHEMBL1122541, “Peptide sweeteners. 7. Taste relationships of trifluoroacetyl-L-aspartylanilides” (J Med Chem, 1984).

Assay [1] in a line: Value represents the number of times the compound was as sweet as sucrose.
Assay [2] can be described thus: Compound taste was tested with reference of sucrose sweetness; + / - - = Sweet/very bitter.
Assay [3] is described as follows: Compound taste was tested with reference of sucrose sweetness; - = Bitter.
A short description of assay [4]: Value represents the number of times the compound was as sweet as sucrose.
The nature of assay [5]: Compound taste was tested with reference of sucrose sweetness; +/- = Sweet/bitter.
Assay [6] in a line: Compound taste was tested with reference of sucrose sweetness; + / - = Sweet/bitter.
Assay [7] can be described thus: compound taste was tested with reference of sucrose sweetness; - = bitter.
The nature of assay [8]: Compound taste was tested with reference of sucrose sweetness; + / - = Sweet/ bitter.
A short description of assay [9]: Compound taste was tested with reference of sucrose sweetness; +/ - - = Sweet/ very bitter.
Assay [10] can be described thus: Value represents the number of times the compound was as sweet as sucrose; +/- - - = Sweet/ very bitter.
Assay [11] in a line: compound taste was tested with reference of sucrose sweetness; + / - - = sweet / bitter.

For the molecule `O=C(O)CC(NC(=O)C(F)(F)F)C(=O)Nc1ccc([N+](=O)[O-])cc1` (centres undefined), the Taste in assay [1] was found to be 1500.
On to `Cc1cc(NC(=O)C(CC(=O)O)NC(=O)C(F)(F)F)ccc1[N+](=O)[O-]` (centres undefined), for which, in assay [2], the Taste result is “+ / - -”.
Take `O=C(O)CC(NC(=O)C(F)(F)F)C(=O)Nc1ccccc1Cl` (centres undefined): the Taste entry in assay [3] is on record as “Bitter”.
`O=C(O)CC(NC(=O)C(F)(F)F)C(=O)Nc1ccc(Cl)cc1` (centres undefined) displayed a Taste in [4] of 120.
Take `N#Cc1cccc(NC(=O)C(CC(=O)O)NC(=O)C(F)(F)F)c1` (centres undefined): in assay [5], the Taste entry is “+/-”.
Consider `O=C(O)CC(NC(=O)C(F)(F)F)C(=O)Nc1cccc(Cl)c1` (centres undefined), for which, in assay [6], the Taste result was “+ / -”.
Take `O=C(O)CC(NC(=O)C(F)(F)F)C(=O)Nc1ccccc1[N+](=O)[O-]` (centres undefined): in [7], the Taste entry was “Bitter”.
In assay [4], `O=C(O)CC(NC(=O)C(F)(F)F)C(=O)Nc1ccccc1` (centres undefined) registered a Taste of 12.
As for `Cc1cccc(NC(=O)C(CC(=O)O)NC(=O)C(F)(F)F)c1` (centres undefined), the Taste result in assay [8] is “+ / -”.
In turn, `N#Cc1ccc(NC(=O)C(CC(=O)O)NC(=O)C(F)(F)F)cc1` (centres undefined) had a Taste in assay [4] of 3000.
As to `O=C(O)CC(NC(=O)C(F)(F)F)C(=O)Nc1ccc([N+](=O)[O-])c([N+](=O)[O-])c1` (centres undefined), the Taste entry in [9] is recorded as “+ / - -”.
As to `O=C(O)CC(NC(=O)C(F)(F)F)C(=O)Nc1cccc([N+](=O)[O-])c1` (centres undefined), the Taste entry in [10] is “+/- - -”.
As to `N#Cc1ccccc1NC(=O)C(CC(=O)O)NC(=O)C(F)(F)F` (centres undefined), the Taste result in assay [3] is given as “Bitter”.
Consider `Cc1cc([N+](=O)[O-])ccc1NC(=O)C(CC(=O)O)NC(=O)C(F)(F)F` (centres undefined), for which, in [11], the Taste result is on record as “+ / - -”.
